According to patent US8993282B2, “Carotenoid fermentation method” (JX Nippon Oil & Energy Corporation, priority 2008, dated 2015):

Tested on: Paracoccus carotinifaciens strain E-396 (FERM BP-4283)
Experiment: Glutamate concentration series, 5 L fermentation tank culture, carotenoid by HPLC
Type: cell-based
Conditions: for Produced carotenoid concentration, 3-Hydroxyechinenone / Produced carotenoid concentration, Adonixanthin / Produced carotenoid concentration, Astaxanthin / Produced carotenoid concentration, Asteroidenone / Produced carotenoid concentration, Canthaxanthin / Produced carotenoid concentration, Echinenone / Produced carotenoid concentration, Phoenicoxanthin / Produced carotenoid concentration, Total Carotenoid / Produced carotenoid concentration, Zeaxanthin / Produced carotenoid concentration, β-Carotene / Produced carotenoid concentration, β-Cryptoxanthin: 100 hours
Procedure: In the examples, carotenoids were quantified by high performance liquid chromatography (HPLC) as follows.
Two columns of Wakosil-II 5 SIL-100 (φ4.6×250 mm) (Wako Pure Chemical Industries, Ltd., Japan) were connected to each other for use as a column. Elution was performed by flowing an n-hexane-tetrahydrofuran-methanol mixed solution (40:20:1), which was a mobile phase, at a flow rate of 1.0 mL/minute at a constant temperature around room temperature. The measurement was performed as follows. Samples were each dissolved in tetrahydrofuran and then diluted 100-fold with the mobile phase. Each dilution was injected in a volume of 20 μL. The column eluate was detected at a wavelength of 470 nm. As a reference for quantification, astaxanthin (SIGMA, Cat. No. A9335) was used. The astaxanthin concentration of the reference solution was determined using the following equation after measuring the absorbance (A) of the reference solution at 477 nm and the area percentage % (B) of the astaxanthin peak at the time of HPLC analysis under the above conditions. Astaxanthin concentration (mg/L)=A/2150×B×100
A medium of the following composition (glucose 20 g/L, filtered corn steep liquor 5 g/L, potassium dihydrogenphosphate 0.54 g/L, dipotassium hydrogenphosphate 12-hydrate 2.78 g/L, calcium chloride dihydrate 5.0 g/L, magnesium sulfate 7-hydrate 0.7 g/L, iron sulfate 7-hydrate 3.0 g/L, alcohol-based defoaming agent 0.2 g/L., pH 7.5) was dispensed in 100 ml volumes into 500 mL cotton-plugged Erlenmeyer flasks and sterilized in an autoclave at 121° C. for 15 minutes to prepare a flask medium for seed culture in 8 flasks.
Next, a medium of the following composition (glucose 40 g/L, corn steep liquor 30 g/L, ammonium sulfate 0.5 g/L, potassium dihydrogenphosphate 2.25 g/L, disodium hydrogenphosphate 12-hydrate 5.7 g/L, calcium chloride dihydrate 0.1 g/L, magnesium sulfate 7-hydrate 0.5 g/L, iron sulfate 7-hydrate 5 g/L, alcohol-based defoaming agent 0.5 g/L) was dispensed in 2.0 L volumes into 5 L fermentation tanks (8 tanks in total). To these tanks, monosodium L-glutamate monohydrate was added at 0, 1, 5, 15, 30, 50, 100 and 200 mmol/L, respectively, followed by sterilization in an autoclave at 121° C. for 30 minutes.
A loopful of Paracoccus carotinifaciens strain E-396 (FERM BP-4283) was inoculated into the flask medium for seed culture and then cultured with rotary shaking at 29° C. for 2 days at 100 rpm. The resulting culture solution was then inoculated in 80 mL, volumes into the individual fermentation tanks, followed by aerobic culture at 29° C. at an aeration volume of 1 vvm for 100 hours. To maintain a pH of 7.2 during culture, the pH was continuously controlled with 15% aqueous ammonia. Glucose was added in an amount of 30 g on day 1 and day 2 of culture to prevent glucose depletion. In addition, the minimum number of agitation rotations was set to 200 rpm, and the number of agitation rotations was varied such that the dissolved oxygen concentration in the culture solution was maintained at 2 to 4 ppm. Bubbling was detected with a bubble sensor and suppressed by automatic addition of an alcohol-based defoaming agent.
At the completion of culture, each culture solution was measured for its carotenoid concentration by HPLC.

[1] = Glutamic acid concentration 1 mmol/L
[2] = Glutamic acid concentration 5 mmol/L
[3] = Glutamic acid concentration 15 mmol/L
[4] = Glutamic acid concentration 30 mmol/L
[5] = Glutamic acid concentration 50 mmol/L
[6] = Glutamic acid concentration 100 mmol/L
[7] = Glutamic acid concentration 200 mmol/L

Compound: N[C@@H](CCC(=O)O)C(=O)O [Glutamic acid, glutamic acid]
- Produced carotenoid concentration, 3-Hydroxyechinenone [1]: 0.2 mg/L
- Produced carotenoid concentration, Adonixanthin [1]: 7.8 mg/L
- Produced carotenoid concentration, Astaxanthin [1]: 18.3 mg/L
- Produced carotenoid concentration, Asteroidenone [1]: 0.4 mg/L
- Produced carotenoid concentration, Canthaxanthin [1]: 2.0 mg/L
- Produced carotenoid concentration, Echinenone [1]: 1.6 mg/L
- Produced carotenoid concentration, Phoenicoxanthin [1]: 5.1 mg/L
- Produced carotenoid concentration, Total Carotenoid [1]: 39.9 mg/L
- Produced carotenoid concentration, Zeaxanthin [1]: 0.17 mg/L
- Produced carotenoid concentration, β-Carotene [1]: 4.3 mg/L
- Produced carotenoid concentration, β-Cryptoxanthin [1]: 0.05 mg/L
- Produced carotenoid concentration, 3-Hydroxyechinenone [2]: 0.3 mg/L
- Produced carotenoid concentration, Adonixanthin [2]: 7.8 mg/L
- Produced carotenoid concentration, Astaxanthin [2]: 27.3 mg/L
- Produced carotenoid concentration, Asteroidenone [2]: 0.4 mg/L
- Produced carotenoid concentration, Canthaxanthin [2]: 3.7 mg/L
- Produced carotenoid concentration, Echinenone [2]: 1.9 mg/L
- Produced carotenoid concentration, Phoenicoxanthin [2]: 7.8 mg/L
- Produced carotenoid concentration, Total Carotenoid [2]: 55.7 mg/L
- Produced carotenoid concentration, Zeaxanthin [2]: 0.18 mg/L
- Produced carotenoid concentration, β-Carotene [2]: 6.2 mg/L
- Produced carotenoid concentration, β-Cryptoxanthin [2]: 0.07 mg/L
- Produced carotenoid concentration, 3-Hydroxyechinenone [3]: 0.3 mg/L
- Produced carotenoid concentration, Adonixanthin [3]: 9.6 mg/L
- Produced carotenoid concentration, Astaxanthin [3]: 30.8 mg/L
- Produced carotenoid concentration, Asteroidenone [3]: 0.6 mg/L
- Produced carotenoid concentration, Canthaxanthin [3]: 3.0 mg/L
- Produced carotenoid concentration, Echinenone [3]: 2.1 mg/L
- Produced carotenoid concentration, Phoenicoxanthin [3]: 7.2 mg/L
- Produced carotenoid concentration, Total Carotenoid [3]: 59.7 mg/L
- Produced carotenoid concentration, Zeaxanthin [3]: 0.19 mg/L
- Produced carotenoid concentration, β-Carotene [3]: 5.8 mg/L
- Produced carotenoid concentration, β-Cryptoxanthin [3]: 0.07 mg/L
- Produced carotenoid concentration, 3-Hydroxyechinenone [4]: 0.3 mg/L
- Produced carotenoid concentration, Adonixanthin [4]: 9.3 mg/L
- Produced carotenoid concentration, Astaxanthin [4]: 30.3 mg/L
- Produced carotenoid concentration, Asteroidenone [4]: 0.6 mg/L
- Produced carotenoid concentration, Canthaxanthin [4]: 3.1 mg/L
- Produced carotenoid concentration, Echinenone [4]: 2.2 mg/L
- Produced carotenoid concentration, Phoenicoxanthin [4]: 7.4 mg/L
- Produced carotenoid concentration, Total Carotenoid [4]: 59.4 mg/L
- Produced carotenoid concentration, Zeaxanthin [4]: 0.20 mg/L
- Produced carotenoid concentration, β-Carotene [4]: 5.9 mg/L
- Produced carotenoid concentration, β-Cryptoxanthin [4]: 0.08 mg/L
- Produced carotenoid concentration, 3-Hydroxyechinenone [5]: 0.4 mg/L
- Produced carotenoid concentration, Adonixanthin [5]: 10.8 mg/L
- Produced carotenoid concentration, Astaxanthin [5]: 30.9 mg/L
- Produced carotenoid concentration, Asteroidenone [5]: 0.9 mg/L
- Produced carotenoid concentration, Canthaxanthin [5]: 2.0 mg/L
- Produced carotenoid concentration, Echinenone [5]: 2.3 mg/L
- Produced carotenoid concentration, Phoenicoxanthin [5]: 6.4 mg/L
- Produced carotenoid concentration, Total Carotenoid [5]: 58.9 mg/L
- Produced carotenoid concentration, Zeaxanthin [5]: 0.21 mg/L
- Produced carotenoid concentration, β-Carotene [5]: 4.9 mg/L
- Produced carotenoid concentration, β-Cryptoxanthin [5]: 0.07 mg/L
- Produced carotenoid concentration, 3-Hydroxyechinenone [6]: 0.3 mg/L
- Produced carotenoid concentration, Adonixanthin [6]: 9.2 mg/L
- Produced carotenoid concentration, Astaxanthin [6]: 28.6 mg/L
- Produced carotenoid concentration, Asteroidenone [6]: 0.6 mg/L
- Produced carotenoid concentration, Canthaxanthin [6]: 2.8 mg/L
- Produced carotenoid concentration, Echinenone [6]: 2.0 mg/L
- Produced carotenoid concentration, Phoenicoxanthin [6]: 7.0 mg/L
- Produced carotenoid concentration, Total Carotenoid [6]: 56.2 mg/L
- Produced carotenoid concentration, Zeaxanthin [6]: 0.18 mg/L
- Produced carotenoid concentration, β-Carotene [6]: 5.5 mg/L
- Produced carotenoid concentration, β-Cryptoxanthin [6]: 0.06 mg/L
- Produced carotenoid concentration, 3-Hydroxyechinenone [7]: 0.3 mg/L
- Produced carotenoid concentration, Adonixanthin [7]: 7.6 mg/L
- Produced carotenoid concentration, Astaxanthin [7]: 23.5 mg/L
- Produced carotenoid concentration, Asteroidenone [7]: 0.5 mg/L
- Produced carotenoid concentration, Canthaxanthin [7]: 2.4 mg/L
- Produced carotenoid concentration, Echinenone [7]: 1.7 mg/L
- Produced carotenoid concentration, Phoenicoxanthin [7]: 5.9 mg/L
- Produced carotenoid concentration, Total Carotenoid [7]: 46.7 mg/L
- Produced carotenoid concentration, Zeaxanthin [7]: 0.15 mg/L
- Produced carotenoid concentration, β-Carotene [7]: 4.6 mg/L
- Produced carotenoid concentration, β-Cryptoxanthin [7]: 0.05 mg/L
- produced carotenoid concentration compared to the sample without glutamic acid (glutamic acid at concentrations from 1 to 200 mmol/L): higher produced carotenoid concentration
